Read-outs that look alike come from different tables or passages of the source.

This experiment relates to test plant species. In words: Post-emergent herbicidal activity test (greenhouse, foliar spray, visual growth reduction). Type of experiment: in vivo. The conditions noted are these: post-emergence, 336 h, 140 g ai/ha. An outline of the steps: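 Seedlings were raised 7-21 d in a greenhouse under a 15 h photoperiod until the first or second true leaf. Each compound, dissolved in acetone:DMSO 97:3 and diluted into a surfactant-containing spray mixture, was then applied at 187 L/ha. Plants were subirrigated, and growth reduction was scored visually at 14 d.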

Where [1] appears, read: ECHCG: barnyardgrass (Echinochloa crus-galli), 14 days after application, read-out: Visual Growth Reduction (%) 14 Days After Application, ECHCG.
Where [2] appears, read: IPOHE: ivy-leaf morning glory (Ipomoea hederacea), 14 days after application, read-out: Visual Growth Reduction (%) 14 Days After Application, IPOHE.
[3] abbreviates: KCHSC: kochia (Bassia scoparia), 14 days after application, read-out: Visual Growth Reduction (%) 14 Days After Application, KCHSC.
The mark [4] stands for this setting: ORYSA: rice (Oryza sativa), 14 days after application, read-out: Visual Growth Reduction (%) 14 Days After Application, ORYSA.
The mark [5] stands for this setting: SETFA: giant foxtail (Setaria faberi), 14 days after application, read-out: Visual Growth Reduction (%) 14 Days After Application, SETFA.
The mark [6] stands for this setting: SORVU: grain sorghum (Sorghum vulgare), 14 days after application, read-out: Visual Growth Reduction (%) 14 Days After Application, SORVU.
The mark [7] stands for this setting: STEME: common chickweed (Stellaria media), 14 days after application, read-out: Visual Growth Reduction (%) 14 Days After Application, STEME.
Where [8] appears, read: TRZAS: wheat, spring (Triticum aestivum), 14 days after application, read-out: Visual Growth Reduction (%) 14 Days After Application, TRZAS.
Where [9] appears, read: blackgrass (Alopecurus myosuroides), 14 Days After Application, read-out: Visual Growth Reduction (%) ALOMY.
[10] abbreviates: canada thistle (Cirsium arvense), 14 Days After Application, read-out: Visual Growth Reduction (%) CIRAR.
[11] abbreviates: crabgrass (Digitaria sanguinalis), 14 Days After Application, read-out: Visual Growth Reduction (%) DIGSA.
The mark [12] stands for this setting: lambsquarters (Chenopodium album), 14 Days After Application, read-out: Visual Growth Reduction (%) CHEAL.
[13] abbreviates: redroot pigweed (Amaranthus retroflexus), 14 Days After Application, read-out: Visual Growth Reduction (%) AMARE.
Setting [14] is: wild oat (Avena fatua), 14 Days After Application, read-out: Visual Growth Reduction (%) AVEFA.
Setting [15] is: yellow nutsedge (Cyperus esculentus), 14 Days After Application, read-out: Visual Growth Reduction (%) CYPES.

Regarding `COC(=O)c1nc(-c2ccc(C(F)(F)F)c(C)c2)c(F)cc1Cl` [F309, Methyl 3-chloro-5-fluoro-6-(3-methyl-4-(trifluoromethyl)phenyl)picolinate], the pest or weed control at 140 g/ha was in the range of 0 to 29% under setting [1]; 0 to 29% under setting [2]; 0 to 29% under setting [3]; 0 to 29% under setting [4]; 0 to 29% under setting [5]; 0 to 29% under setting [6]. In addition, the pest or weed control at 140 g/ha is, setting by setting: under setting [7], 0 to 29%; under setting [8], 0 to 29%; under setting [9], 0 to 29%; under setting [10], 0 to 29%; under setting [11], 0 to 29%; under setting [12], 45 to 59%. Also, the pest or weed control at 140 g/ha is, setting by setting: under setting [13], 45 to 59%; under setting [14], 0 to 29%; under setting [15], 0 to 29%.

With `COC(=O)c1nc(-c2ccc(C(F)(F)F)c(F)c2F)c(F)cc1Cl` [F310, Methyl 3-chloro-6-(2,3-difluoro-4-(trifluoromethyl)phenyl)-5-fluoropicolinate], the pest or weed control at 140 g/ha was in the range of 60 to 74% under setting [1]; 95 to 100% under setting [2]; 45 to 59% under setting [3]; 0 to 29% under setting [4]; 85 to 94% under setting [5]; 95 to 100% under setting [6]. Besides, the pest or weed control at 140 g/ha reads like this: under setting [7], 0 to 29%; under setting [8], 60 to 74%; under setting [9], 45 to 59%; under setting [10], 95 to 100%; under setting [11], 95 to 100%; under setting [12], 95 to 100%. Moreover, the pest or weed control at 140 g/ha under setting [13] was in the range of 95 to 100%, the pest or weed control at 140 g/ha under setting [14] was 60 to 74% and the pest or weed control at 140 g/ha under setting [15] was 75 to 84%.

Take `CCOc1cc(C(F)(F)F)ccc1-c1nc(C(=O)OC)c(Cl)cc1F` [F311, Methyl 3-chloro-6-(2-ethoxy-4-(trifluoromethyl)phenyl)-5-fluoropicolinate]: the pest or weed control at 140 g/ha lay in the range of 0 to 29% under setting [1]; 95 to 100% under setting [2]; 0 to 29% under setting [3]; 0 to 29% under setting [4]; 0 to 29% under setting [5]; 75 to 84% under setting [6]. The pest or weed control at 140 g/ha reads like this: under setting [7], 0 to 29%; under setting [8], 0 to 29%; under setting [9], 0 to 29%; under setting [10], 0 to 29%; under setting [11], 0 to 29%; under setting [12], 30 to 44%. The pest or weed control at 140 g/ha runs as follows: under setting [13], 0 to 29%; under setting [14], 0 to 29%; under setting [15], 0 to 29%.

Take `COC(=O)c1nc(-c2ccc(C(F)(F)F)cc2F)ncc1Cl` [F312, Methyl 5-chloro-2-(2-fluoro-4-(trifluoromethyl)phenyl) pyrimidine-4-carboxylate]: the pest or weed control at 140 g/ha lay within 75 to 84% under setting [1]; 95 to 100% under setting [2]; 0 to 29% under setting [3]; 0 to 29% under setting [4]; 60 to 74% under setting [5]; 85 to 94% under setting [6]. The pest or weed control at 140 g/ha by setting is: under setting [7], 0 to 29%; under setting [8], 30 to 44%; under setting [9], 0 to 29%; under setting [10], 85 to 94%; under setting [11], 85 to 94%; under setting [12], 85 to 94%. Besides, the pest or weed control at 140 g/ha is 85 to 94% under setting [13], 0 to 29% under setting [14] and 45 to 59% under setting [15].

The record behind these values is patent US20230017045A1, “PYRIDINE AND PYRIMIDINE CARBOXYLATE HERBICIDES AND METHODS OF USE THEREOF” (Dow AgroSciences LLC, priority 2017, published 2023).
